What was measured:
Type in all cases: cell-based
Parameters in all cases: expressed in transfected cells; host or cells: HEK293 cells transfected with VIPR2 in pCDNA3.1 (as described)
VIPR2 [1] = target: T1, VIPR2 (Homo sapiens, UniProt P41587); test: Inhibition of VIP-induced cAMP elevation (% Activity cAMP)
T1 sequence (P41587 24-438): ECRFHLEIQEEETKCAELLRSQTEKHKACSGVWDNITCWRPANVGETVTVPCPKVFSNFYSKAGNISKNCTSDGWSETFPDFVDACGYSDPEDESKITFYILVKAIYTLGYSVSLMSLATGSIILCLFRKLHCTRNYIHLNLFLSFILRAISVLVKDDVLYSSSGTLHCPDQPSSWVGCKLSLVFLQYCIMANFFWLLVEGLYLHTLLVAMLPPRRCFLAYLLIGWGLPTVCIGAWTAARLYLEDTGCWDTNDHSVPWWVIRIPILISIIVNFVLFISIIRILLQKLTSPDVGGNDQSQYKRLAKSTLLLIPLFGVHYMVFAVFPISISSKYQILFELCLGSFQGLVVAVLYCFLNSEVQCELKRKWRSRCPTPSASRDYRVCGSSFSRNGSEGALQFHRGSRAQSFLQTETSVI
Description: (§1) In a further non-limiting embodiment of the invention, the ability of a compound to inhibit VIPR2 and thereby […] a VIP-induced increase in cAMP may be measured using a Homogeneous Time-Resolved Fluorescence (“HTRF® assay; Cisbio Bioassays) as used in Chu et al., 2010, Molecular Pharmacol. 7795-101. In a method as used in Chu et al., 2010, Molecular Pharmacol. 7795-101, HEK293 cells may be transfected with nucleic acid encoding VIPR2, for example human VIPR2 (“hVIPR2”), for example comprised in a vector such as pCDNA3.1 vector. Successful transformants may then be selected, for example using 800 μg/ml G418. Clonal stable cell lines may then be generated by limited dilution to single cells and then may be clonally expanded and tested for VIP -dependent cAMP response. For the cAMP assay, about 3000-15,000 cells (in about 4-25 μl) may be placed in a well of an assay plate. The next day, inhibitor or test inhibitor and VIP may be added in a volume about 1-2 percent of the initial volume. Assay plates may then be returned to a cell incubator for 30 min before addition of a one-half volume of cAMP conjugate and, relative to the amount of cAMP conjugate, an equal volume of anti-cAMP conjugate (Cisbio). After at least 1 h of room-temperature incubation, HTRF signal may be read, for example using Viewlux or EnVision (PerkinElmer Life and Analytical Sciences, Waltham, Mass.). The ratio of […] at 665 nm and 620 nm times 10,000 may be calculated and plotted.
(§2) A series of compounds were prepared using a synthetic method analogous to that set forth in Scheme 1, above, and then tested for their ability to inhibit VIP-induced cAMP elevation and β-arrestin recruitment.
(§3) A series of compounds were prepared using a synthetic method analogous to that set forth in Scheme 1, above, and then tested for their ability to inhibit VIP-induced cAMP elevation and β-arrestin recruitment, as described herein (Discoverx Corporation, Fremont, Calif., US). Compound activities were also tested in a BRET-based assay, as described herein. The results are shown below in Tables 1-4, above.

VIPR2 [2] = target: T1, VIPR2; test: Inhibition of VIP-induced β-arrestin recruitment (% Activity Arrestin)
Description: (§4) In a further non-limiting embodiment of the invention, the ability of a compound to inhibit VIPR2 GPCR activity may be tested, for example, using the PathHunter® eXpress β-Arrestin GPCR system (Discoverx Corporation, Fremont, Calif., US), as used by Chu et al., 2010, Molecular Pharmacol. 7795-101. In this assay, β-Arrestin is fused to the “Enzyme Acceptor” (“EA”), an N-terminal deletion mutant of β-gal, and the GPCR of interest is fused to a smaller (42 amino acids), weakly complementing portion of the β-gal enzyme (termed “ProLink™”). In cells that stably express these fusion proteins, the interaction of β-Arrestin and the GPCR following ligand stimulation forces the complementation of the two β-gal fragments resulting in the formation of a functional enzyme that converts substrate to detectable signal. In the absence of an interaction between the GPCR and β-Arrestin, the enzyme activity is low due to the low affinity of the two enzyme fragments. For example, a nucleic acid encoding VIPR2, for example hVIPR2, may be cloned into the ProLink vector (DiscoveRx) for GPCR-ProLink fusion protein production. Parental HEK293 cells that stably express β-arrestin2-β-gal-EA fusion protein (DiscoveRx) may be detached and transiently transfected with the VIPR2-containing vector using Fugene6 transfection reagent in suspension mode. Transfected cells in assay medium may be plated into test plates, for example at 15,000 cells/25 μl/well. After overnight incubation, 500 nl of an inhibitor or test inhibitor may be introduced into the test plate followed by 2 h incubation at 37° C., 5% CO2. Flash detection reagents may be added at 12.5 μl/well. After 5 min to 1 h of room-temperature incubation, the cell plates may be read on CLIPR (PerkinElmer Life and Analytical Sciences)or Acquest (Molecular Devices, Sunnyvale, Calif.) for luminescence signal.
as §2, §3

VIPR2 [3] = target: T1, VIPR2; test: % Activity: inhibition of VIP-induced cAMP elevation and β-arrestin recruitment (Table 2)
Description: as §1, §4, §3

Row | SMILES | inhibition at 0.5 µM (VIPR2 [1]; Batch 1) [%] | inhibition at 1 µM (VIPR2 [1]; Batch 1) [%] | inhibition at 5 µM (VIPR2 [1]; Batch 1) [%] | inhibition at 0.5 µM (VIPR2 [2]; Batch 1) [%] | inhibition at 1 µM (VIPR2 [2]; Batch 1) [%] | inhibition at 5 µM (VIPR2 [2]; Batch 1) [%] | % Activity (VIPR2 [3]) [%] | inhibition at 0.5 µM (VIPR2 [1]; Batch 2) [%] | inhibition at 1 µM (VIPR2 [1]; Batch 2) [%] | inhibition at 5 µM (VIPR2 [1]; Batch 2) [%] | inhibition at 0.5 µM (VIPR2 [2]; Batch 2) [%] | inhibition at 1 µM (VIPR2 [2]; Batch 2) [%] | inhibition at 5 µM (VIPR2 [2]; Batch 2) [%]
1 | C#CCCCC(=O)NC[C@@H](O)C[C@@H](Cc1ccccc1)C(=O)N[C@H]1c2ccccc2C[C@H]1O [Compound A23] | 20.8 | 20.2 | 26.6 | 45.8 | 16.1 | 25.8 | 26.2 |  |  |  |  |  | 
2 | C=Cc1ccc(C(=O)NC[C@@H](O)C[C@@H](Cc2ccccc2)C(=O)N[C@H]2c3ccccc3C[C@H]2O)cc1 [Compound A24] | 16.1 | 16.5 | 23.8 | 2.3 | 47.5 | 1.8 | 12.8 |  |  |  |  |  | 
3 | O=C(NC[C@@H](O)C[C@@H](Cc1ccccc1)C(=O)N[C@H]1c2ccccc2C[C@H]1O)c1ccc([N+](=O)[O-])cc1 [Compound A25] | 14 | 22.3 | 21.1 | -0.5 | 18.6 | 16.4 | 18.75 |  |  |  |  |  | 
4 | CC(C)(C)c1ccc(C(=O)NC[C@@H](O)C[C@@H](Cc2ccccc2)C(=O)N[C@H]2c3ccccc3C[C@H]2O)cc1 [Compound A26] | 10.7 | 16 | 23.2 | 16.2 | 11.3 | 7.8 | 15.5 |  |  |  |  |  | 
5 | NC[C@@H](O)C[C@@H](Cc1ccccc1)C(=O)N[C@H]1c2ccccc2C[C@H]1O [Compound A28] | 11.8 | 15.9 | 15.2 | 3.7 | 1.4 | 19.7 | 17.45 |  |  |  |  |  | 
6 | O=C(NC1CCCC1)[C@H](Cc1ccccc1)C[C@H](O)CNS(=O)(=O)c1ccc([N+](=O)[O-])cc1 [Compound B1A] |  |  |  |  |  |  | 6.95 | -2.1 | -4.9 | 4.7 | 17.4 | 17.1 | 9.2
7 | O=C(NC1CCCC1)[C@@H](Cc1ccccc1)C[C@H](O)CNS(=O)(=O)c1ccc([N+](=O)[O-])cc1 [Compound B1B] |  |  |  |  |  |  | 0.5 | -7.5 | -2.5 | -0.3 | -5.7 | -6.1 | 1.3
8 | O=C(NC1Cc2ccccc2C1)[C@H](Cc1ccccc1)C[C@H](O)CNS(=O)(=O)c1ccc([N+](=O)[O-])cc1 [Compound B2A] |  |  |  |  |  |  | 12.9 | 5.7 | 7.5 | 16 | -2.7 | 8.1 | 9.8
9 | O=C(NCc1ccccc1)[C@H](Cc1ccccc1)C[C@H](O)CNS(=O)(=O)c1ccc([N+](=O)[O-])cc1 [Compound B3A] |  |  |  |  |  |  | 10.65 | -1.1 | -1.3 | -2.9 | 1.8 | 4.4 | 24.2

Reference: patent publication US20150239831A1, “INHIBITORS OF CENTRAL NERVOUS SYSTEM VASOACTIVE INHIBITORY PEPTIDE RECEPTOR 2” (The Trustees Of Columbia University In The City Of New York, priority 2012, published 2015)
